Molecules are shown by their SMILES.

For experiment [1], the target named is T1, GPR84 (Mus musculus, UniProt Q8CIM5).
T1 construct: tissue Jackson Laboratories; host or cells: female C57BL/6J mice (LPS, saline, EAE or naive): brain, spinal cord and peripheral organs
The experiment can be described thus: Ex vivo gamma counting of CNS tissues in EAE vs naive mice. Here is the method:
After the PET/CT scan the mice were perfused under 3% isoflurane and organs of interest were dissected out, weighed, and placed on a Hidex gamma counter to quantify the percent of injected dose per gram of tissue. After gamma counting, CNS tissues were frozen and sectioned on a cryotome at 40 μm and placed on a phosphor storage screen overnight. The images were read using a Typhoon imager 18 h after the screen was exposed to the tissues. Additional mice were also injected off of the PET/CT scanner and perfused at 60-min post-injection to increase the N for the ex vivo gamma counting and autoradiography data.
Radiosynthesis of ^18F-MGX-110S was achieved by copper-mediated fluorination of a Bpin precursor in a mixture of dimethylacetamide at 130° C. for 20 min. C57BL/6 mice were induced with EAE using myelin oligodendrite glycoprotein (MOG35-55) emulsified in complete Freund's adjuvant and weighed/scored daily for disease severity. Expression of Gpr84 and Tspo was assessed in EAE (n=10-16 mice of low and high disease severities) versus naïve mice (n=5) using quantitative polymerase chain reaction (qPCR) of CNS tissues. In vivo kinetics, spatial distribution, and BBB permeability of ^18F-MGX-110S was assessed via 60-min dynamic PET/CT imaging of naïve C57BL/6 (n=3) and high scoring EAE mice (n=3). […]

In experiment [2] the test system is GPR84-positive immune cells. The experiment can be described thus: PET/CT in B16F1 melanoma brain metastasis model, with or without anti-PD-1 and anti-CTLA-4. The experiment is classed as in vivo, mouse. The conditions noted are these: anti-PD-1 and anti-CTLA-4, day 9. How it is done: Six-to-eight-week-old female C57BL/6 mice were injected subcutaneously with 0.25×10^6 B16F1 melanoma cells on the right flank to generate extracranial tumors. After two days of extracranial tumor inoculation, 5×10^3 B16F1 melanoma cells were stereotactically injected into the striatum. Five days after intracranial tumor inoculation, mice were randomized into treatment (n=4) vs no treatment (n=4) groups based on the intracranial bioluminescence signals and monitored daily starting on day 5 for extracranial tumor volume changes. On days 5, 7 and 9 post-intracranial tumor inoculation, mice in the treatment group were treated with anti-PD-1 and anti-CTLA-4 (200 μg via intraperitoneal injection). T2-weighted MRI (Bruker) with a CryoProbe was performed on day 9 after intracranial tumor inoculation to identify brain tumor region of interest. Following MRI, mice underwent PET/CT imaging on the GNEXT PET/CT (Sofie). 100-125 μCi of [^18F]MGX-110S was injected for a 10-min static PET scan followed by CT. Mice were then perfused and organs of interest were dissected and analyzed via gamma counting. Region of interest analysis of the PET images was performed using a 3D volume drawing mode around the intracranial and extracranial tumors (Inveon Research Workspace).

Experiment [3] deals with T1, GPR84. The experiment can be described thus: Ex vivo autoradiography of brain sections from LPS-treated mice. In kind it is in vivo. Here is the method:
(§1) To determine KD of GLPG38, a competitive binding assay was performed using a membrane preparation from cells expressing GPR84-Gi in addition to [^3H]G9543, a known GPR84 antagonist. [^11C]GLPG38 was then radiosynthesized via [^11C]methylation of desmethyl precursor using [^11C]methyl iodide. Binding specificity of [^11C]GLPG38 was assessed using human GPR84-stably-expressing human embryonic kidney cells (HEK-293) versus control HEK-293 cells. For animal studies, sepsis was induced in female C57BL/6J mice via intraperitoneal injection of lipopolysaccharide (LPS, 10 mg/kg); vehicle-treated mice were injected with saline alone. Dynamic 60 min PET/CT imaging was performed 24 hr following LPS-administration using [^11C]GLPG38. Subsequently, mice were perfused with PBS to remove blood, and radioactive signal was assessed in CNS and peripheral tissues via gamma counting. Ex vivo autoradiography of sagittal mouse brain sections was conducted to obtain high resolution images of [^11C]GLPG38 binding. To investigate alterations in GPR84 mRNA expression, quantitative polymerase-chain reaction was performed using mouse brain tissue and human monocyte-derived macrophage cells stimulated with LPS 24 hr prior to RNA extraction.
Ex vivo Audoradiography Confirms ^11C-MGX-10S Specificity.

Experiment [4] addresses T1, GPR84. The experiment is described as follows: Ex vivo biodistribution (gamma counting) of GPR84 tracer in LPS- vs saline-treated mice. The conditions noted are these: LPS 10 mg/kg. Here is the method:
FIGS. 11A-11B show ex vivo biodistribution and autoradiography. […] At 20 min postinjection, animals were perfused with saline and tissues were collected, weighed, and gamma-counted. […] Statistical analysis was performed using “Unpaired t test with Welch correction”, *=P<0.05. […] Cb=cerebellum, Ctx=cortex, Str=striatum, H=hippocampus, Mb=midbrain, Ob=olfactory bulb, and BS=brain stem.
as §1, with “Binding specificity of [^11C]GLPG38 was assessed using human GPR84-stably-expressing human embryonic kidney cells (HEK-293) versus control HEK-293 cells. For animal studies, sepsis was induced in female C57BL/6J mice via intraperitoneal injection of lipopolysaccharide (LPS, 10 mg/kg); vehicle-treated mice were injected with saline alone.” left out

T1 sequence (Q8CIM5 whole entry): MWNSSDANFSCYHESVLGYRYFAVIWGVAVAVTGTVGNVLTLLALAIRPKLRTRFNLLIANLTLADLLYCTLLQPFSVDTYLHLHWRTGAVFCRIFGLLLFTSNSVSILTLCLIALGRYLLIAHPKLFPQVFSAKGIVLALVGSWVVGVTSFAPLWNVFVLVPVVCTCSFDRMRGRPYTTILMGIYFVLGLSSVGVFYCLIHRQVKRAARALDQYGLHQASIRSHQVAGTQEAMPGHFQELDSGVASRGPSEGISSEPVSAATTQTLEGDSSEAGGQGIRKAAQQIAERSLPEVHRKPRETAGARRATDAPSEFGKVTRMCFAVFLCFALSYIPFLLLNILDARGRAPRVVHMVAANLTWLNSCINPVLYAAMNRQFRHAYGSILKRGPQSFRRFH

With `O=c1nc(OC[C@@H]2COCCO2)cc2n1CCc1cc([18F])ccc1-2` [^18F-MGX-110S], the “signal-to-background ratio (EAE-to-naive) in lumbar spinal cord relative to 18F-GE180” value at GPR84 [1] (60 min post injection) worked out at 2.5 fold. In addition, on GPR84 [1] (both p<0.01), the “tracer binding in cervical/thoracic and lumbar spinal cord, EAE vs naive” value is reported as “significantly elevated tracer binding”. Moreover, the “PET signal in intracranial tumor, untreated vs immunotherapy-treated mouse” value in experiment [2] was “significantly elevated signal”.

On to `Cc1cc2c(cc1O[11CH3])CCn1c-2c(C)c(OC[C@@H]2COCCO2)cc1=O` [[^11C]GLPG38], for which, on GPR84 [3] (GLPG1205 5 mg/kg ([11C]GLPG38) or 1 mg/kg (11C-MGX-10S)), the “tracer binding in LPS brain sections after pre-blocking with GLPG1205” value was “substantial reduction”. In addition, on GPR84 [3] (mouse, in vivo), the “tracer binding in brain sections, LPS-treated vs vehicle mice” value is listed as “marked increase”. In addition, the “gamma counting signal in brain, LPS-injected vs vehicle mice” value at GPR84 [4] (p=0.0023) is listed as “increased signal in the brain”. Besides, the “gamma counting tracer binding in adipose tissue, LPS vs vehicle mice” value at GPR84 [4] (p=0.007) is listed as “significant increase in tracer binding”.

The values are drawn from patent publication US20260091147A1, “METHOD FOR DETECTING INNATE IMMUNE ACTION IN VIVO USING GPR84-PET” (The Board of Trustees of the Leland Standford Junior …, priority 2023, published 2026).
